In experiment [1] the test system is JAK1/JAK3. In words: IL-2-stimulated pSTAT5 in human whole blood. It is filed as cell-based. The protocol: With respect to IL-2-stimulated JAK1/3 activation in human whole blood cells, whole blood (50 μL) was preincubated with compounds for 30 min and then stimulated with IL-2 (20 ng/mL) for 15 min.
(§1) The stimulations stated above were terminated with prewarmed Lyse/Fix Buffer (558,049; BD Biosciences, San Jose, CA, USA) for 10 min. Cells were stained with an anti-cluster of differentiation (CD)3 fluorescein isothiocyanate (FITC) antibody (required for PBMCs but not for the other cell types), washed, and permeabilized on ice using Perm III Buffer (558,050; BD Biosciences) prior to staining with an Alexa Fluor 647 anti-phosphorylated (p)STAT5 (pY694) antibody for 30 min and analyzed by flow cytometry. Phosphorylation of STAT5 was quantified by the median fluorescence intensity (MFI) after gating on the CD3-positive population.

For experiment [2], the system named is TYK2/JAK1. Kind of experiment: IL-23-induced pSTAT3 in human Th17 cells. It is filed as cell-based. How it is done:
Human naïve CD4^+ T cells were separated using a human naïve CD4^+ T-cell isolation kit (StemCell, #17,852), and then cells were stimulated with anti-CD3 monoclonal antibody and anti-CD28 monoclonal antibody for 7–10 days under the following Th17-skewing treatments: IL-6, IL-23, IL-1β and transforming growth factor-β. Half of the medium was replaced with fresh medium containing a stimulant to induce differentiation every other day. Th17 cells were incubated overnight at 37 °C for deactivation. Cells were reinoculated on 96-well plates and cocultured with gradient-diluted QL-1200186 for 1 h and then stimulated with recombinant human IL-23 (ACRO: #IL-B-H52 WS) for 0.5 h. Cells were collected, and phosphorylation of STAT3 was quantified according to the MFI.

The subject of experiment [3] is TYK2/JAK2. Kind of experiment: IL-12/IL-18-induced IFNγ production in NK-92 cells, ELISA. The class given is cell-based, human. How it is done: The inhibitory effect of QL-1200186 on IL-12/IL-18-induced IFNγ production in NK cells or human whole blood was determined by enzyme-linked immunosorbent assay (ELISA). NK92 cells were stimulated with recombinant human IL-12 (2 ng/mL; 200–12; PeproTech, Cranbury, NJ, USA) and recombinant human IL-18 (5 ng/mL; 9124-IL-050/CF; R&D Systems, Minneapolis, MN, USA) with or without QL-1200186 for 24 h at 37 °C. For human whole blood cells, whole blood (200 μL) was preincubated with the compound for 1 h and then stimulated with recombinant human IL-12 (2 ng/mL) or recombinant human IL-18 (10 ng/mL) for 24 h. After centrifugation, the supernatant was collected, and IFNγ production in the supernatant was measured with human IFNγ ELISA kits according to the manufacturer’s instructions (Biolegend, 430,104).
In general terms: In an ELISA, binding on a coated surface is turned into a signal by an enzyme label.

The subject of experiment [4] is TYK2/JAK1. In words: IL-23 HEK293 reporter assay. The class given is cell-based, human.
The subject of experiment [5] is TYK2/JAK1. In words: IFNα HEK293 (HEK-Blue IFN-α/β) reporter gene assay. The class given is cell-based, human. The protocol:
HEK-Blue™ IFN-α/β cells were used to determine the activity of QL-1200186. After 24 h of incubation with QL-1200186, HEK-Blue™ IFN-α/β cells (Invivogen; NKB-IFNAB) were stimulated with human IFNα (200 U/mL; catalog number: 11200–2; PBL Assay Science; Piscataway, NJ, USA) for 6 h. Stimulation of HEK-Blue IFN-α/β cells with human IFNα activates the JAK/STAT/ISGF3 pathway and subsequently induces the production of SEAP. Levels of SEAP in the supernatant were readily assessable using QUANTI-Blue™ Solution (InvivoGen, San Diego, CA, USA).
In general terms: A reporter such as luciferase makes a cellular process visible.

The test system of experiment [6] is JAK2/JAK2. In words: GM-CSF-stimulated pSTAT5 in U937 cells. The class given is cell-based, human. As to conditions: @10μM. How it is done: With respect to GM-CSF-stimulated JAK2 activation in U937 cells (Cobioer Biosciences, CBP60277), after 1 h of treatment with QL-1200186, U937 cells were stimulated with GM-CSF (20 ng/mL; C003; Novoprotein, Suzhou, China) for 15 min.
as §1

For experiment [7], the system named is JAK2/JAK2. Kind of experiment: TPO-stimulated pSTAT3/STAT5 in platelets of human whole blood. The class given is cell-based. The protocol: Stimulation was terminated by adding Lyse/Fix buffer. Staining with BUV786 mouse anti-human CD61 antibody (744384; BD Biosciences) was carried out, followed by washing, permeabilization and staining with PE mouse anti-human STAT3 antibody (651004; BD Biosciences) and APC mouse anti-human STAT5 antibody (562076; BD Biosciences), as described above. The expression of p-STAT3 and STAT5 was quantified by the MFI after the number of CD61-positive platelets was optimized.

Experiment [8] has as its system JAK1/JAK3. Kind of experiment: IL-2-stimulated pSTAT5 in human PBMC. It is filed as cell-based. As to conditions: @10μM. The protocol: With regard to IL-2-stimulated JAK1/3 activation in human PBMCs, after 1 h of incubation with QL-1200186, human PBMCs were stimulated with human IL-2 (20 ng/mL; C013; Novoprotein) for 20 min.
as §1

The test system of experiment [9] is TYK2/JAK1. In words: IFNα-stimulated pSTAT5 in human PBMC (CD3+), FACS. It is filed as cell-based. How it is done:
With regard to IFNα-stimulated phosphorylation of STAT5 in human peripheral blood mononuclear cells (PBMCs), after incubation with QL-1200186 for 1 h, human PBMCs were stimulated with recombinant human IFNα (1000 U/mL; 11200–2; PBL Assay Science) for 30 min.
as §1

For experiment [10], the system named is TYK2/JAK1. In words: IFNα-induced pSTAT1 in CD19+ B cells of human PBMCs. It is filed as cell-based. How it is done: (§2) The reaction was terminated by collecting cells for surface staining. Cells were stained with anti-CD3 FITC (300406; Biolegend, San Diego, CA, USA), anti-CD19 APC (555415; BD Biosciences) or aqua fluorescent reactive dye BV421 (L34966A; Invitrogen, Carlsbad, CA, USA) antibodies for 20 min. After washing, fixation buffer (557870; BD Biosciences) was added and incubated for 10 min. Cells were washed and permeabilized on ice using Perm III Buffer (558050; BD Biosciences). Cells were stained with PE anti-PSTAT1 antibody (562069; BD Biosciences) for 30 min and analyzed by flow cytometry.

For experiment [11], the system named is TYK2/JAK1. Kind of experiment: IFNα-induced pSTAT1 in CD3+ T cells of human PBMCs. It is filed as cell-based. The protocol: as §2

pIC50: −log10 of the molar value.

Results on two compounds are retold here after publication PMC10578023 (Cell Communication and Signaling : CCS, 2023).

Take “deucravacitinib [BMS-986165, reference compound]”: in [1], the “activity in IL-2-mediated JAK1/JAK3 signaling” value is recorded as “slight inhibitory effect”. Besides, the pIC50 in experiment [2] is 8.22; in [3], 7.41; in experiment [4] it was 8.19; in experiment [5] it was 8.20; in experiment [9], 7.72; in experiment [10], 8.20. In [11], this compound had a pIC50 of 8.11. Further, the “GM-CSF-pSTAT5 in U937 (JAK2/JAK2) inhibition” value in [6] is approximately 10% inhibition @10μM. Further, in experiment [7] (@10μM), the “TPO-pSTAT3/STAT5 in human whole blood (JAK2/JAK2) inhibition” value was “no inhibition @10μM”. Besides, in experiment [8], the “IL-2- pSTAT5 in PBMC (JAK1/JAK3) inhibition” value is approximately 40% inhibition @10μM.
As for `CNc1cc(Nc2cccn(-c3ccccn3)c2=O)nc2c(C(=O)N[C@@H]3CC[C@H]3OC)cnn12` [NDI-034858, reference compound], in [1], the “activity in IL-2-mediated JAK1/JAK3 signaling” value is listed as “no activity”. The “activity in thrombopoietin (TPO)-induced JAK2/JAK2 signaling” value in [7] (human whole blood) is listed as “no activity”.

Broadly, the pIC50 is −log10 of the IC50, conventionally taken in molar units.
